# pIC50: −log10 of the molar value.
# Biological target: T1, Purified ERAP1 (37-941)-10His (ERAP1) (Homo sapiens, UniProt Q9NZ08)
# T1 construct: Purified ERAP1 (37-941)-10His (ERAP1)
# Experiment: ERAP1 mediated hydrolysis of an amide substrate (10-mer inhibition assay), biochemical system
# Conditions: 10-mer substrate, 23° C., 1 h, excitation 279 nm / emission 355 nm; read-out: IC50 vs Decapeptide WRVYEKC(Dnp)ALK-acid (where Dnp is Dinitrophenyl maleimide) (10-mer)
# T1 sequence (Q9NZ08 37-941): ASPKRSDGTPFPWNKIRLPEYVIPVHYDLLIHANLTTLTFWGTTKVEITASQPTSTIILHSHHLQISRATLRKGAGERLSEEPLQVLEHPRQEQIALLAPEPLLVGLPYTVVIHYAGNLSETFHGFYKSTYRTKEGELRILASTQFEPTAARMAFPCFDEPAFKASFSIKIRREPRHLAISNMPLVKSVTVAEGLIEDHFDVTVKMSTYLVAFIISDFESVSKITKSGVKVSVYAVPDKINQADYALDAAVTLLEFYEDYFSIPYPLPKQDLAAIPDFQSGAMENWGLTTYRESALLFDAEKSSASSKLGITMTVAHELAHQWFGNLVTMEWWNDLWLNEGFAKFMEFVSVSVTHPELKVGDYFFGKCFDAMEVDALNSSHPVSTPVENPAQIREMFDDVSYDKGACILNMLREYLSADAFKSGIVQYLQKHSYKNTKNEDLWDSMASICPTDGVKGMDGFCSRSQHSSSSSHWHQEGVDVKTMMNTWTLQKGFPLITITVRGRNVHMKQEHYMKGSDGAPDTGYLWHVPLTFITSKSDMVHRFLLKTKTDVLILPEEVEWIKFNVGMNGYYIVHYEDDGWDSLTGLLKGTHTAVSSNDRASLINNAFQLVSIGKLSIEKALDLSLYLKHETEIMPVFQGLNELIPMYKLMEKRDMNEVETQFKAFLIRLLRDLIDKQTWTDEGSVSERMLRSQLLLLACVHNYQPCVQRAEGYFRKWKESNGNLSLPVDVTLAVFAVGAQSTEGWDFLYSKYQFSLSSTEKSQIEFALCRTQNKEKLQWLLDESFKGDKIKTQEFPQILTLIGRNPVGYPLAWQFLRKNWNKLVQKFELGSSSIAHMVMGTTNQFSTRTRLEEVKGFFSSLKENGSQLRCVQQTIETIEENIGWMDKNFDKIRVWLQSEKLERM
row,SMILES,pIC50
1,"CCc1ccc(C(=O)O)cc1S(=O)(=O)Nc1cc(-c2cnoc2)ccc1N1CCCCC1 [Example 297, 4-ethyl-3-(N-(5-(isoxazol-4-yl)-2-(piperidin-1-yl)phenyl)sulfamoyl)benzoic acid]",> 6.30
2,"CCc1ccc(C(=O)O)cc1S(=O)(=O)Nc1cc(-c2c[nH]nn2)ccc1N1CCCCC1 [Example 298, 4-ethyl-3-(N-(2-(piperidin-1-yl)-5-(1,2,3-triazol-4-yl)phenyl)sulfamoyl)benzoic acid]",> 6.30
3,CCc1ccc(C(=O)O)cc1S(=O)(=O)Nc1cc(-c2nnco2)ccc1N1CCCCC1 [Example 299],> 6.30
4,"CCc1ccc(C(=O)O)cc1S(=O)(=O)Nc1cc(-c2ccno2)ccc1N1CCCCC1 [Example 300, 4-ethyl-3-(N-(5-(isoxazol-5-yl)-2-(piperidin-1-yl)phenyl)sulfamoyl)benzoic acid]",> 6.30
5,"CCc1ccc(C(=O)O)cc1S(=O)(=O)Nc1cc(-c2cn[nH]c2)ccc1N1CCCCC1 [Example 301, 4-ethyl-3-(N-(2-(piperidin-1-yl)-5-(pyrazol-4-yl)phenyl)sulfamoyl)benzoic acid]",> 6.30
6,"CCc1ccc(C(=O)O)cc1S(=O)(=O)Nc1cc(-c2ccnnc2)ccc1N1CCCCC1 [Example 302, 4-ethyl-3-(N-(2-(piperidin-1-yl)-5-(pyridazin-4-yl)phenyl)sulfamoyl)benzoic acid]",> 6.30
7,"CCc1ccc(C(=O)O)cc1S(=O)(=O)Nc1cc(-c2cnoc2C)c(C)cc1N1CCCCC1 [Example 303, 4-ethyl-3-(N-(4-methyl-5-(5-methylisoxazol-4-yl)-2-(piperidin-1-yl)phenyl)sulfamoyl)benzoic acid]",> 6.30
8,"CCc1ccc(C(=O)O)cc1S(=O)(=O)Nc1cc(-c2cnoc2C)c(F)cc1N1CCCCC1 [Example 304, 4-ethyl-3-(N-(4-fluoro-5-(5-methylisoxazol-4-yl)-2-(piperidin-1-yl)phenyl)sulfamoyl)benzoic acid]",> 6.30
9,"CCc1ccc(C(=O)O)cc1S(=O)(=O)Nc1c(N2CCCCC2)ccc(-c2cnoc2C)c1F [Example 305, 4-ethyl-3-(N-(2-fluoro-3-(5-methylisoxazol-4-yl)-6-(piperidin-1-yl)phenyl)sulfamoyl)benzoic acid]",> 6.30
10,"CCc1ccc(C(=O)O)cc1S(=O)(=O)Nc1cc(-c2cnoc2C)c(Cl)cc1N1CCCCC1 [Example 306, 4-ethyl-3-(N-(4-Chloro-5-(5-methylisoxazol-4-yl)-2-(piperidin-1-yl)phenyl)sulfamoyl)benzoic acid]",> 6.30
11,"CCc1ccc(C(=O)O)cc1S(=O)(=O)Nc1cc(S(C)(=O)=O)ccc1N1CCC(F)(F)CC1 [Example 308, 3-(N-(2-(4,4-difluoropiperidin-1-yl)-5-(methylsulfonyl)phenyl)sulfamoyl)-4-ethylbenzoic acid]",> 6.30
12,"CS(=O)(=O)c1ccc(N2CCC(F)(F)CC2)c(NS(=O)(=O)c2cc(C(=O)O)ccc2C2CC2)c1 [Example 309, 4-cyclopropyl-3-(N-(2-(4,4-difluoropiperidin-1-yl)-5-(methylsulfonyl)phenyl)sulfamoyl)benzoic acid]",> 6.30
13,"N#Cc1ccc(N2CCC(F)(F)CC2)c(NS(=O)(=O)c2cc(C(=O)O)ccc2C2CC2)c1 [Example 310, 3-(N-(5-cyano-2-(4,4-difluoropiperidin-1-yl)phenyl)sulfamoyl)-4-cyclopropylbenzoic acid]",> 6.30
14,"CCc1ccc(C(=O)O)cc1S(=O)(=O)Nc1cc(C#N)ccc1N1CCC[C@@H](F)C1 [Example 311, I-3-(N-(5-cyano-2-(3-fluoropiperidin-1-yl)phenyl)sulfamoyl)-4-ethylbenzoic]",> 6.30
15,"N#Cc1ccc(N2CCC[C@@H](F)C2)c(NS(=O)(=O)c2cc(C(=O)O)ccc2C2CC2)c1 [Example 312, I-3-(N-(5-cyano-2-(3-fluoropiperidin-1-yl)phenyl)sulfamoyl)-4-cyclopropylbenzoic acid]",> 6.30

# Source: patent US12485169B2, “Compounds” (GREY WOLF THERAPEUTICS LIMITED, priority 2018, dated 2025)
